In patent US20190375708A1 (VenatoRx Pharmaceuticals, Inc., priority 2018, published 2019):

How the values were obtained:
[1] = tested on: HBV replication in HepAD38 cells; test: Anti-HBV replication assay in HepAD38 cells (QPCR of extracellular HBV DNA); type: cell-based, HBV (genotype D, serotype ayw); conditions: Hepatitis B virus, 168 h, 7 days incubation, extracellular HBV DNA by QPCR, read-out: Anti-HBV EC50
How it was run: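 HepAD38 cells (HepG2 carrying tet-repressible HBV genotype D genome) induced by tetracycline withdrawal, treated 7 days at 37 °C with compound ([…], 1-log10 dilutions). Extracellular HBV DNA quantified by QPCR against a standard curve, normalised to DMSO; EC50 from 4-parameter fit.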

[2] = In vitro cytotoxicity assay (MTT cell viability) in HepG2 cells; type: cell-based, human; conditions: human
How it was run: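 HepG2 cells incubated 7 days at 37 °C, 5% CO2 with compounds from 30 μM to 1.0 nM (8 half-log dilutions). Viability read as MTT formazan absorbance at 492 nm, normalised to vehicle controls; CC50 from 4-parameter non-linear regression.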

SMILES	EC50 [1]	CC50 at 7 days [2]
Cc1c(C(=O)Nc2ccc(F)c(F)c2)c2n(c1C(=O)C(=O)NCc1cnc(N)s1)CCCC2 [Example 455, 3-(2-(((2-aminothiazol-5-yl)methyl)amino)-2-oxoacetyl)-N-(3,4-difluorophenyl)-2-methyl-5,6,7,8-tetrahydroindolizine-1-carboxamide]	< 50 nM	5000 to 30000 nM
Cc1noc(C2(NC(=O)C(=O)c3c(C)c(C(=O)Nc4ccc(F)c(C)c4)c(C)n3CCF)CC2)n1 [Example 203, N-(4-fluoro-3-methylphenyl)-1-(2-fluoroethyl)-2,4-dimethyl-5-(2-((1-(3-methyl-1,2,4-oxadiazol-5-yl)cyclopropyl)amino)-2-oxoacetyl)-1H-pyrrole-3-carboxamide]	< 50 nM	> 30000 nM
Cc1noc([C@@H](C)NC(=O)C(=O)c2c(Cl)c(C(=O)Nc3ccc(F)c(F)c3)c3n2CCC3)n1 [Example 567, (R)-6-chloro-N-(3,4-difluorophenyl)-5-(2-((1-(3-methyl-1,2,4-oxadiazol-5-yl)ethyl)amino)-2-oxoacetyl)-2,3-dihydro-1H-pyrrolizine-7-carboxamide]	< 50 nM	> 30000 nM
Cc1c(C(=O)Nc2ccc(F)c(Cl)c2)c(C)n(C)c1C(=O)C(=O)NC12CCC(O)(CC1)CC2 [Example 357, N-(3-chloro-4-fluorophenyl)-5-(2-((4-hydroxybicyclo[2.2.2]octan-1-yl)amino)-2-oxoacetyl)-1,2,4-trimethyl-1H-pyrrole-3-carboxamide]	< 50 nM	> 30000 nM
Cc1cc(NC(=O)c2c(C)c(C(=O)C(=O)N[C@H](C(N)=O)C(C)C)n(C)c2C)ccc1F [Example 107, (S)-5-(2-((1-amino-3-methyl-1-oxobutan-2-yl)amino)-2-oxoacetyl)-N-(4-fluoro-3-methylphenyl)-1,2,4-trimethyl-1H-pyrrole-3-carboxamide]	< 50 nM	> 30000 nM
Cc1cc(NC(=O)c2c(Cl)c(C(=O)C(=O)N[C@H](C)C(F)(F)F)n3c2CCCC3)cnc1F [Example 732]	50 to 499 nM	> 30000 nM
Cc1cc(NC(=O)c2c(Cl)c(C(=O)C(=O)NC3(CO)CC(F)(F)C3)n3c2CCCC3)cnc1F [Example 507, 2-chloro-3-(2-((3,3-difluoro-1-(hydroxymethyl)cyclobutyl)amino)-2-oxoacetyl)-N-(6-fluoro-5-methylpyridin-3-yl)-5,6,7,8-tetrahydroindolizine-1-carboxamide]	50 to 499 nM	> 30000 nM
Cc1cc(NC(=O)c2c(C)c(C(=O)C(=O)N[C@H]3CC[C@](C)(O)CC3)n(C)c2C)ccc1F [Example 213, N-(4-fluoro-3-methylphenyl)-5-(2-(((1r,4r)-4-hydroxy-4-methylcyclohexyl)amino)-2-oxoacetyl)-1,2,4-trimethyl-1H-pyrrole-3-carboxamide]	< 50 nM	> 30000 nM
Cc1c(C(=O)Nc2ccc(F)c(Cl)c2)c2n(c1C(=O)C(=O)NCC(C)(C)O)CCCC2 [Example 467, N-(3-chloro-4-fluorophenyl)-3-(2-((2-hydroxy-2-methylpropyl)amino)-2-oxoacetyl)-2-methyl-5,6,7,8-tetrahydroindolizine-1-carboxamide]	500 to 1000 nM	> 30000 nM
Cc1cc(NC(=O)c2cc(C(=O)C(=O)NC(C)(C)CO)n3c2CCCC3)cc(F)c1F [Example 425, N-(3,4-difluoro-5-methylphenyl)-3-(2-((1-hydroxy-2-methylpropan-2-yl)amino)-2-oxoacetyl)-5,6,7,8-tetrahydroindolizine-1-carboxamide]	50 to 499 nM	> 30000 nM
Cc1cc(NC(=O)c2c(C)c(C(=O)C(=O)NCC(C)(C)O)n(C)c2C)cnc1F [Example 183, N-(6-fluoro-5-methylpyridin-3-yl)-5-(2-((2-hydroxy-2-methylpropyl)amino)-2-oxoacetyl)-1,2,4-trimethyl-1H-pyrrole-3-carboxamide]	500 to 1000 nM	> 30000 nM
Cc1cc(NC(=O)c2c(C)c(C(=O)C(=O)NCC(C)(C)C)n(C)c2C)ccc1F [Example 64, N-(4-fluoro-3-methylphenyl)-1,2,4-trimethyl-5-(2-(neopentylamino)-2-oxoacetyl)-1H-pyrrole-3-carboxamide]	< 50 nM	5000 to 30000 nM
Cc1cc(NC(=O)c2c(C)c(C(=O)C(=O)NC3(c4nnn[nH]4)CCCC3)n(C)c2C)ccc1F [Example 636, 5-(2-((1-(1H-tetrazol-5-yl)cyclopentyl)amino)-2-oxoacetyl)-N-(4-fluoro-3-methylphenyl)-1,2,4-trimethyl-1H-pyrrole-3-carboxamide]	< 50 nM	> 30000 nM
Cn1cc(C(=O)Nc2ccc(F)c(Cl)c2)cc1C(=O)C(=O)NOC(C)(C)C [Example 21, 5-(2-(tert-butoxyamino)-2-oxoacetyl)-N-(3-chloro-4-fluorophenyl)-1-methyl-1H-pyrrole-3-carboxamide]	50 to 499 nM	> 30000 nM
Cc1cc(NC(=O)c2cc(C(=O)C(=O)NC3(CO)CCC3)n3c2CCCC3)ccc1F [Example 410, N-(4-fluoro-3-methylphenyl)-3-(2-((1-(hydroxymethyl)cyclobutyl)amino)-2-oxoacetyl)-5,6,7,8-tetrahydroindolizine-1-carboxamide]	50 to 499 nM	> 30000 nM
Cc1c(C(=O)Nc2ccc(F)cc2)c(C)n(C)c1C(=O)C(=O)N[C@H](C)C(F)(F)F [Example 725, (R)-N-(4-fluorophenyl)-1,2,4-trimethyl-5-(2-oxo-2-((1,1,1-trifluoropropan-2-yl)amino)acetyl)-1H-pyrrole-3-carboxamide]	< 50 nM	> 30000 nM
Cc1csc(NC(=O)C(=O)c2c(C)c(C(=O)Nc3ccc(F)c(F)c3)c(C)n2C)n1 [Example 315, N-(3,4-difluorophenyl)-1,2,4-trimethyl-5-(2-((4-methylthiazol-2-yl)amino)-2-oxoacetyl)-1H-pyrrole-3-carboxamide]	< 50 nM	> 30000 nM
Cc1cc(Cl)cc(NC(=O)c2c(C)c(C(=O)C(=O)N[C@]3(C)CC[C@@H](O)CC3)n(C)c2C)c1 [Example 687, N-(3-chloro-5-methylphenyl)-5-(2-(((1r,4r)-4-hydroxy-1-metthylcyclohexyl)amino)-2-oxoacetyl)-1,2,4-trimethyl-1H-pyrrole-3-carboxamide]	< 50 nM	5000 to 30000 nM
CC(C)(CO)NC(=O)C(=O)c1cc(C(=O)Nc2ccc(F)c(C(F)F)c2)c2n1CCCC2 [Example 429, N-(3-(difluoromethyl)-4-fluorophenyl)-3-(2-((1-hydroxy-2-methylpropan-2-yl)amino)-2-oxoacetyl)-5,6,7,8-tetrahydroindolizine-1-carboxamide]	50 to 499 nM	> 30000 nM
CC(C)(C)NC(=O)C(=O)c1cc(C(=O)Nc2ccc(F)c(C(F)F)c2)c2n1CCCC2 [Example 400, 3-(2-(tert-butylamino)-2-oxoacetyl)-N-(3-(difluoromethyl)-4-fluorophenyl)-5,6,7,8-tetrahydroindolizine-1-carboxamide]	50 to 499 nM	> 30000 nM
Cc1cc(NC(=O)c2c(Cl)c(C(=O)C(=O)NCC(C)(C)O)n3c2CCCC3)cnc1F [Example 529, 2-chloro-N-(6-fluoro-5-methylpyridin-3-yl)-3-(2-((2-hydroxy-2-methylpropyl)amino)-2-oxoacetyl)-5,6,7,8-tetrahydroindolizine-1-carboxamide]	> 1000 nM	> 30000 nM
CC(C)(CO)NC(=O)C(=O)c1c(Cl)c(C(=O)Nc2ccnc(F)c2)c2n1CCCC2 [Example 512, 2-chloro-N-(2-fluoropyridin-4-yl)-3-(2-((1-hydroxy-2-methylpropan-2-yl)amino)-2-oxoacetyl)-5,6,7,8-tetrahydroindolizine-1-carboxamide]	500 to 1000 nM	> 30000 nM
Cc1cc(NC(=O)c2c(C)c(C(=O)C(=O)NC3CCN(c4cccs4)CC3)n(C)c2C)ccc1F [Example 655]	50 to 499 nM	> 30000 nM
Cc1c(C(=O)Nc2ccn(C)n2)c2n(c1C(=O)C(=O)NC(C)(C)CO)CCCC2 [Example 756, 3-(2-((1-hydroxy-2-methylpropan-2-yl)amino)-2-oxoacetyl)-2-methyl-N-(1-methyl-1H-pyrazol-3-yl)-5,6,7,8-tetrahydroindolizine-1-carboxamide]	50 to 499 nM	> 30000 nM
Cc1cc(NC(=O)c2c(C)c(C(=O)C(=O)N[C@@H]3CCC[C@@H]3O)n(C)c2Cl)ccc1F [Example 390, 2-chloro-N-(4-fluoro-3-methylphenyl)-5-(2-(((1R,2S)-2-hydroxycyclopentyl)amino)-2-oxacetyl)-1,4-dimethyl-1H-pyrrole-3-carboxamide]	50 to 499 nM	> 30000 nM
Cc1cc(NC(=O)c2c(C)c(C(=O)C(=O)NC3(CO)CC3)n(C)c2C)ccc1F [Example 7, N-(4-fluoro-3-methylphenyl)-5-(2-((1-(hydroxymethyl)cyclopropyl)amino)-2-oxoacetyl)-1,2,4-trimethyl-1H-pyrrole-3-carboxamide]	< 50 nM	> 30000 nM
COCC(C)(C)NC(=O)C(=O)c1c(C)c(C(=O)Nc2cnc(F)c(C)c2)c(C)n1CCF [Example 226, N-(6-fluoro-5-methylpyridin-3-yl)-1-(2-fluoroethyl)-5-(2-((1-methoxy-2-methylpropan-2-yl)amino)-2-oxoacetyl)-2,4-dimethyl-1H-pyrrole-3-carboxamide]	500 to 1000 nM	> 30000 nM
Cc1cc(NC(=O)c2c(C)c(C(=O)C(=O)NC3CCN(C4CCOCC4)CC3)n(C)c2C)ccc1F [Example 653, N-(4-fluoro-3-methylphenyl)-1,2,4-trimethyl-5-(2-oxo-2-((1-(tetrahydro-2H-pyran-4-yl)piperidin-4-yl)mino)acetyl)-1H-pyrrole-3-carboxamide]	50 to 499 nM	> 30000 nM
